The values below come from patent US6812229B1, “Carbamate derivative and agricultural/horticultural fungicide” (Kumiai Chemical Industry Co., Ltd., priority 1999, dated 2004).

One assay has as its system Erysiphe graminis. In words: Test for preventive effect on wheat powdery mildew. Format: in vivo. The following applies: wheat seedlings (Norin-61-go), two-leaf stage, 500 ppm active ingredient, wettable powder, total diseased area of first leaves 10 days after inoculation. On the procedure: 10 Wheat seeds (variety: Norin-61-go) were sown in each plastic pot having a diameter of 6 cm, and grown in a greenhouse. Wheat seedlings which reached a two-leaf stage were treated with 10 ml per pot of aqueous solutions of wettable powders prepared in accordance with Formulation Example 2, at a concentration of 500 ppm in terms of the active ingredients, and dried in the air. Then, the seedlings were inoculated with Erysiphe graminis spore and controlled in a greenhouse. 10 Days after the inoculation, the total diseased area of the first leaves in each pot was observed and evaluated on the basis of the standards shown in Table 21.

The test system of another assay is Septoria nodorum. Description: Test for preventive effect on Septoria leaf blotch of wheat. In kind it is in vivo. The settings on record: wheat seedlings (Norin-61-go), two-leaf stage, 50 ppm active ingredient, 10 ml per pot, evaluated 10 days after inoculation with Septoria nodorum. The source says: [table] 10 Wheat seeds (variety: Norin-61-go) were sown in each plastic pot having a diameter of 6 cm, and grown in a greenhouse. […] Then, the seedlings were inoculated with Septoria nodorum […] controlled in a greenhouse. 10 Days after the inoculation, the total diseased area of the first leaves in each pot was observed and evaluated on the basis of the standards shown in Table 21.

For the molecule `COC(=O)NCc1cc(C(C)=NOCc2ccccc2)ccc1Cl` (single isomer, unassigned) [A-80], in the assay on Erysiphe graminis, the Evaluation entry is “A (No diseased area)”. The “Evaluation (total diseased area of the first leaves)” value in the assay on Septoria nodorum is given as “A (No diseased area)”.
`COC(=O)NCc1cc(C(C)=NOCc2ccccc2Cl)ccc1Cl` (single isomer, unassigned) [A-84]: in the assay on Erysiphe graminis, the Evaluation result is listed as “A (No diseased area)”.
Take `COC(=O)NCc1cc(C(C)=NOCc2cccc(Cl)c2)ccc1Cl` (single isomer, unassigned) [A-85]: in the assay on Erysiphe graminis, the Evaluation result is given as “A (No diseased area)”. Also, the “Evaluation (total diseased area of the first leaves)” value in the assay on Septoria nodorum was “B (Diseased area of less than 5%)”.
Turning to `COC(=O)NCc1cc(C(C)=NOCc2ccc(Cl)cc2)ccc1Cl` (single isomer, unassigned) [A-86], the Evaluation entry in the assay on Erysiphe graminis is “A (No diseased area)”.
`C=CCON=C(C)c1cccc(CNC(=O)OC)c1` [A-37]: the Evaluation result in the assay with Erysiphe graminis was “A (No diseased area)”.
With `COC(=O)NCc1cccc(C(C)=NOCc2ccccc2)c1` [A-38], in the assay on Erysiphe graminis, the Evaluation result is “A (No diseased area)”.
On to `CCON=C(C)c1cccc(CNC(=O)OC)c1` [A-39], for which, in the assay with Erysiphe graminis, the Evaluation result is “A (No diseased area)”.
In the case of `CON=C(C)c1cccc(CNC(=O)OC)c1` [A-40, Methyl N-[3-(1-methoxyiminoethyl)benzyl]carbamate], the Evaluation result in the assay on Erysiphe graminis is “A (No diseased area)”.
For the molecule `C=CCON=C(c1ccccc1)c1cccc(CNC(=O)OC)c1` [A-41], in the assay with Erysiphe graminis, the Evaluation entry was “B (Diseased area of less than 5%)”.
`CON=C(c1ccccc1)c1cccc(CNC(=O)OC)c1` [A-42]: the Evaluation entry with Erysiphe graminis was “A (No diseased area)”.
Take `CCON=C(c1ccccc1)c1cccc(CNC(=O)OC)c1` [A-43]: the Evaluation result with Erysiphe graminis is “A (No diseased area)”.
As to `CON=C(C)c1ccc(Cl)c(CNC(=O)OC)c1` [A-46], the Evaluation result with Erysiphe graminis is “A (No diseased area)”.
On to `CCON=C(C)c1ccc(Cl)c(CNC(=O)OC)c1` [A-49], for which the Evaluation entry in the assay with Erysiphe graminis is recorded as “A (No diseased area)”.
In the case of `CCCON=C(C)c1ccc(Cl)c(CNC(=O)OC)c1` [A-50], the Evaluation entry in the assay on Erysiphe graminis is on record as “A (No diseased area)”.
On to `COC(=O)NCc1cc(C(C)=NOC(C)C)ccc1Cl` [A-51], for which the Evaluation result in the assay with Erysiphe graminis is given as “A (No diseased area)”. For the same molecule, in the assay on Septoria nodorum, the “Evaluation (total diseased area of the first leaves)” value is reported as “B (Diseased area of less than 5%)”.
As to `COC(=O)NCc1cc(C(C)=NOC(C)(C)C)ccc1Cl` [A-55], the Evaluation result in the assay on Erysiphe graminis is listed as “A (No diseased area)”.
For the molecule `C=CCON=C(C)c1ccc(Cl)c(CNC(=O)OC)c1` [A-58], the Evaluation entry in the assay on Erysiphe graminis is given as “A (No diseased area)”. Besides, the “Evaluation (total diseased area of the first leaves)” value in the assay with Septoria nodorum is on record as “B (Diseased area of less than 5%)”.
For `C#CCON=C(C)c1ccc(Cl)c(CNC(=O)OC)c1` [A-61], the Evaluation result in the assay with Erysiphe graminis is “A (No diseased area)”. For the same molecule, the “Evaluation (total diseased area of the first leaves)” value in the assay with Septoria nodorum is “B (Diseased area of less than 5%)”.
For `COC(=O)NCc1cc(C(C)=NOCCCc2ccccc2)ccc1Cl` [A-62], in the assay with Erysiphe graminis, the Evaluation entry is recorded as “A (No diseased area)”. Besides, in the assay with Septoria nodorum, the “Evaluation (total diseased area of the first leaves)” value is recorded as “B (Diseased area of less than 5%)”.
Take `COC(=O)NCc1cc(C(C)=NOCC(=O)OC(C)(C)C)ccc1Cl` [A-64]: the Evaluation entry with Erysiphe graminis is “B (Diseased area of less than 5%)”. Besides, the “Evaluation (total diseased area of the first leaves)” value in the assay on Septoria nodorum is given as “A (No diseased area)”.
For `COC(=O)NCc1cc(C(C)=NOCc2ccccc2F)ccc1Cl` [A-81], in the assay on Erysiphe graminis, the Evaluation entry is listed as “A (No diseased area)”. The “Evaluation (total diseased area of the first leaves)” value with Septoria nodorum was “B (Diseased area of less than 5%)”.
For `COC(=O)NCc1cc(C(C)=NOCc2cccc(F)c2)ccc1Cl` [A-82] the same measures were “A (No diseased area)” and “B (Diseased area of less than 5%)”.
For the molecule `COC(=O)NCc1cc(C(C)=NOCc2ccccc2Br)ccc1Cl` [A-87], the Evaluation entry in the assay on Erysiphe graminis is on record as “A (No diseased area)”. The “Evaluation (total diseased area of the first leaves)” value in the assay on Septoria nodorum is recorded as “B (Diseased area of less than 5%)”.
Take `COC(=O)NCc1cc(C(C)=NOCc2cccc(Br)c2)ccc1Cl` [A-88]: the Evaluation entry with Erysiphe graminis is reported as “A (No diseased area)”. The “Evaluation (total diseased area of the first leaves)” value in the assay on Septoria nodorum was “B (Diseased area of less than 5%)”.
On to `COC(=O)NCc1cc(C(C)=NOCc2ccc(Br)cc2)ccc1Cl` [A-89], for which the Evaluation entry with Erysiphe graminis was “A (No diseased area)”. The “Evaluation (total diseased area of the first leaves)” value in the assay with Septoria nodorum is recorded as “B (Diseased area of less than 5%)”.
The like results for `COC(=O)NCc1cc(C(C)=NOCc2ccccc2C)ccc1Cl` [A-90] were, in that order, “A (No diseased area)” and “A (No diseased area)”.
Regarding `COC(=O)NCc1cc(C(C)=NOCc2cccc(C)c2)ccc1Cl` [A-91], the Evaluation entry in the assay with Erysiphe graminis is “A (No diseased area)”. In addition, in the assay with Septoria nodorum, the “Evaluation (total diseased area of the first leaves)” value is recorded as “B (Diseased area of less than 5%)”.
In the case of `COC(=O)NCc1cc(C(C)=NOCc2ccc(C)cc2)ccc1Cl` [A-92], the Evaluation result in the assay on Erysiphe graminis is “A (No diseased area)”. For the same molecule, the “Evaluation (total diseased area of the first leaves)” value in the assay with Septoria nodorum is “B (Diseased area of less than 5%)”.
In the case of `COC(=O)NCc1cc(C(C)=NOCc2ccc(C(C)(C)C)cc2)ccc1Cl` [A-98], in the assay on Erysiphe graminis, the Evaluation entry is “A (No diseased area)”. Moreover, the “Evaluation (total diseased area of the first leaves)” value with Septoria nodorum is on record as “A (No diseased area)”.
As for `COC(=O)NCc1cc(C(C)=NOCc2ccccc2C(F)(F)F)ccc1Cl` [A-99], the Evaluation entry with Erysiphe graminis is “A (No diseased area)”. The “Evaluation (total diseased area of the first leaves)” value with Septoria nodorum is on record as “B (Diseased area of less than 5%)”.
As to `COC(=O)NCc1cc(C(C)=NOCc2cccc(C(F)(F)F)c2)ccc1Cl` [A-100], in the assay on Erysiphe graminis, the Evaluation entry is listed as “A (No diseased area)”.
Consider `COC(=O)NCc1cc(C(C)=NOCc2ccc(C(F)(F)F)cc2)ccc1Cl` [A-101], for which the Evaluation entry in the assay on Erysiphe graminis is given as “A (No diseased area)”.
For `COC(=O)NCc1cc(C=NOCc2ccccc2)ccc1C` [A-112], in the assay with Erysiphe graminis, the Evaluation result is listed as “A (No diseased area)”. Also, the “Evaluation (total diseased area of the first leaves)” value in the assay on Septoria nodorum is “B (Diseased area of less than 5%)”.
For the molecule `COC(=O)NCc1cccc(C(C)=NOCc2ccc(F)cc2)c1` [A-400], in the assay on Septoria nodorum, the “Evaluation (total diseased area of the first leaves)” value was “B (Diseased area of less than 5%)”.
In the case of `COC(=O)NCc1cc(C(C)=NOCC(=O)c2ccc(Cl)cc2)ccc1Cl` [A-403], the “Evaluation (total diseased area of the first leaves)” value in the assay on Septoria nodorum is listed as “A (No diseased area)”.
Consider `COC(=O)NCc1cc(C(C)=NOCC(=O)c2ccc(OC)cc2)ccc1Cl` [A-404], for which the “Evaluation (total diseased area of the first leaves)” value in the assay on Septoria nodorum is given as “A (No diseased area)”.
Take `COC(=O)NCc1cc(C(=NOCc2ccccn2)C2CC2)ccc1Cl` [A-405]: the “Evaluation (total diseased area of the first leaves)” value in the assay on Septoria nodorum was “A (No diseased area)”.
Turning to `COC(=O)NCc1cc(C(C)=NOC(C)c2ccccc2C)ccc1Cl` (stereo not drawn) [A-406], the “Evaluation (total diseased area of the first leaves)” value in the assay on Septoria nodorum is “A (No diseased area)”.
As for `COC(=O)NCc1cc(C(C)=NOC(C)c2cccc(C)c2)ccc1Cl` (stereo not drawn) [A-407], the “Evaluation (total diseased area of the first leaves)” value in the assay on Septoria nodorum is “A (No diseased area)”.
For `COC(=O)NCc1cc(C(C)=NOCc2ccc(C(C)=O)o2)ccc1Cl` [A-410], the “Evaluation (total diseased area of the first leaves)” value in the assay with Septoria nodorum is given as “A (No diseased area)”.
Still for that read-out and setting: next, `COC(=O)NCc1cc(C(C)=NOC2C=CCC2OC)ccc1Cl` (stereo not drawn) [A-411]: “A (No diseased area)”.
Same read-out and setting: under `CON=C(C)C(ON=C(C)c1ccc(Cl)c(CNC(=O)OC)c1)C(C)=NOC` (stereo not drawn) [A-412] stands “A (No diseased area)”.
For the molecule `COC(=O)NCc1cc(C(C)=NOCc2nc(C)cc(C)n2)ccc1Cl` [A-413], the “Evaluation (total diseased area of the first leaves)” value in the assay on Septoria nodorum is recorded as “A (No diseased area)”.
For the molecule `COC(=O)NCc1cc(C(C)=NOCc2ccccc2[N+](=O)[O-])ccc1Cl` [A-414], in the assay with Septoria nodorum, the “Evaluation (total diseased area of the first leaves)” value is given as “A (No diseased area)”.
As to `COC(=O)NCc1cc(C(C)=NOCc2cccs2)ccc1Cl` [A-415], the “Evaluation (total diseased area of the first leaves)” value in the assay with Septoria nodorum is recorded as “A (No diseased area)”.
With `COC(=O)NCc1cc(C(C)=NOCc2cscn2)ccc1Cl` [A-416], the “Evaluation (total diseased area of the first leaves)” value with Septoria nodorum is on record as “A (No diseased area)”.
With `COC(=O)NCc1cc(C(C)=NOCc2cccc(OC)n2)ccc1Cl` [A-417], in the assay with Septoria nodorum, the “Evaluation (total diseased area of the first leaves)” value is on record as “A (No diseased area)”.
Turning to `CCOc1cccc(CON=C(C)c2ccc(Cl)c(CNC(=O)OC)c2)n1` [A-418], the “Evaluation (total diseased area of the first leaves)” value in the assay with Septoria nodorum is on record as “A (No diseased area)”.
`COC(=O)NCc1cc(C(C)=NOCc2cccc(C#N)c2)ccc1F` [A-428]: the “Evaluation (total diseased area of the first leaves)” value in the assay with Septoria nodorum is reported as “A (No diseased area)”.
On the same count and under the same terms, next, `COC(=O)NCc1cc(C(C)=NOCc2cccc(C)n2)ccc1F` [A-430]: “A (No diseased area)”; `COC(=O)NCc1cc(C(C)=NOCc2ccc3ccccc3n2)ccc1Cl` [A-431]: “A (No diseased area)”; `COC(=O)NCc1cc(C(C)=NOCc2nc(C(F)(F)F)cs2)ccc1Cl` [A-432]: “A (No diseased area)”.
For the molecule `COC(=O)NCc1cc(C(C)=NOCc2cccc(C)[n+]2[O-])ccc1Cl` [A-433], the “Evaluation (total diseased area of the first leaves)” value in the assay with Septoria nodorum is on record as “B (Diseased area of less than 5%)”.
`COC(=O)NCc1cc(C=NOCc2ccc(Cl)cc2)ccc1Cl` [A-438]: the “Evaluation (total diseased area of the first leaves)” value with Septoria nodorum is recorded as “B (Diseased area of less than 5%)”.
On to `COC(=O)NCc1cc(C(C)=NOCc2ccc3ccccc3n2)ccc1F` [A-440], for which the “Evaluation (total diseased area of the first leaves)” value in the assay with Septoria nodorum is on record as “B (Diseased area of less than 5%)”.
`COC(=O)NCc1cc(C(C)=NOCC2CCCO2)ccc1Cl` (stereo not drawn) [A-443]: the “Evaluation (total diseased area of the first leaves)” value with Septoria nodorum is reported as “B (Diseased area of less than 5%)”.
Still for that read-out and setting: under `COC(=O)NCc1cc(C(C)=NOC2C=CC(C(Cl)(Cl)Cl)C2)ccc1Cl` (stereo not drawn) [A-444] stands “B (Diseased area of less than 5%)”.
